Experiments:
Human HDAC2 = target: T1, Human HDAC2 (Homo sapiens, UniProt Q92769); assay: Biochemical HDAC assay, HDAC2; conditions: incubation time 120 min
T1 construct: full-length with a C-terminal His-tag; His-tag (C); made in house
Procedure: Human HDAC2 (GenBank Accession No. NM_001527), full-length with a C-terminal His-tag, MW=56 kDa, was expressed in a baculovirus expression system.
(§1) • I. Compound handling: Testing compounds were dissolved in 100% DMSO to a specific concentration. The serial dilution was conducted by epMotion 5070 in DMSO. • II. HDAC reaction buffer: 50 mM Tris-HCl, pH8.0, 137 mM NaCl, 2.7 mM KCl, and 1 mM MgCl2, Added fresh: 1 mg/ml BSA, 1% DMSO. • III. Substrate: Fluorogenic HDAC General Substrate for HDAC1, 2, 3, 6, 10, 11 ans Sirt1, 2 and 3: Arg-His-Lys-Lys(Ac); HDAC8 only substrate: Arg-His-Lys(Ac)-Lys(Ac); Class2A Substrate (HDAC4, 5, 7 and 9): Acetyl-Lys(trifluoroacetyl)-AMC; Sirt5 substrate: Ac-Lys(succinyl)-AMC. • IV. General Reaction Procedure: (Standard IC50 determination) • a. Delivered 2× enzyme in wells of reaction plate except No Enzyme (No En) control wells. Add buffer in No En wells. • b. Delivered compounds in 100% DMSO into the enzyme mixture by Acoustic technology (Echo550; nanoliter range). Spin down and pre-incubation. • c. Delivered 2× Substrate Mixture (Fluorogenic HDAC Substrate and co-factor (500 μM of Nicotinamide adenine dinucleotide (NAD^+) in all Sirt assay) in all reaction wells to initiate the reaction. Spin and shake. • d. Incubated for 1-2 hr. at 30° C. with seal. • e. Added Developer with Trichostatin A (or TMP269 or NAD^+) to stop the reaction and to generate fluorescent color. • f. Fluorescence was read (excitatory, 360; emission, 460) using the EnVision Multilabel Plate Reader (Perkin Elmer) • g. Endpoint reading was taken for analysis after the development reaches plateau. • V. Data Analysis: The percentages of enzyme activity (relative to DMSO controls) and IC50 values were calculated using the GraphPad Prism 4 program based on a sigmoidal dose-response equation.
(§2) Compounds with indicated doses was tested in the biochemical assays of HDAC1, HDAC2, HDAC3, HDAC4, HDAC5, HDAC6, HDAC7, HDAC8, HDAC9, HDAC10, or HDAC11 enzyme. The incubation time in HDAC1/2 assays are 120 min, and that for other HDACs are 10 min. The curve fit and IC50 values were calculated using the GraphPad Prism 4 program based on a sigmoidal dose-response equation.

[1] = target: T2, Complex of human HDAC3 and human NCOR2 (Homo sapiens, UniProt O15379); assay: Biochemical HDAC assay, HDAC3; conditions: incubation time 10 min
T2 construct: full-length with a C-terminal His tag; His tag (C); made in house
T2 sequence (O15379 whole entry): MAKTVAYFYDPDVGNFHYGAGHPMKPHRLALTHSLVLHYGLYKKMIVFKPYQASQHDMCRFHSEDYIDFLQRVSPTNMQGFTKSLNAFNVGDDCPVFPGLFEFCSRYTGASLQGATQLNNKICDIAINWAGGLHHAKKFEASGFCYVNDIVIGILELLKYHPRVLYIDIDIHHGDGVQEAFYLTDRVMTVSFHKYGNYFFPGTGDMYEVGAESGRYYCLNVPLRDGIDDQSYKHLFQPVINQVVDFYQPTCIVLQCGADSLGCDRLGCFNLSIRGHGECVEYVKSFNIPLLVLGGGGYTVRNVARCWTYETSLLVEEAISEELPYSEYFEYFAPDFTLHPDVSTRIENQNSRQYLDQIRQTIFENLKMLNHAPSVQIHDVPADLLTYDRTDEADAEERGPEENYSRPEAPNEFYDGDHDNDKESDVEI
T2 sequence (Q9Y618 395-489 partner limits assumed): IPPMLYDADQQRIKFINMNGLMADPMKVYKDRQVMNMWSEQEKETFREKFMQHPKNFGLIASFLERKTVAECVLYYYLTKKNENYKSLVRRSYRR
Procedure: Complex of human HDAC3 (GenBank Accession No. NM_003883), full-length with a C-terminal His tag, MW=49.7 kDa, and human NCOR2 (amino acid 395-489) (GenBank Accession No. NM_006312), N-terminal GST tag, MW=37.6 kDa, was co-expressed in a baculovirus expression system.
as §1, §2

Human HDAC1 = target: T3, Human HDAC1 (Homo sapiens, UniProt Q13547); assay: Biochemical HDAC assay, HDAC1; conditions: incubation time 120 min
T3 construct: full-length with a C-terminal His-tag and a C-terminal FLAG-tag; His-tag (C); FLAG-tag (C); made in house
T3 sequence (Q13547 whole entry): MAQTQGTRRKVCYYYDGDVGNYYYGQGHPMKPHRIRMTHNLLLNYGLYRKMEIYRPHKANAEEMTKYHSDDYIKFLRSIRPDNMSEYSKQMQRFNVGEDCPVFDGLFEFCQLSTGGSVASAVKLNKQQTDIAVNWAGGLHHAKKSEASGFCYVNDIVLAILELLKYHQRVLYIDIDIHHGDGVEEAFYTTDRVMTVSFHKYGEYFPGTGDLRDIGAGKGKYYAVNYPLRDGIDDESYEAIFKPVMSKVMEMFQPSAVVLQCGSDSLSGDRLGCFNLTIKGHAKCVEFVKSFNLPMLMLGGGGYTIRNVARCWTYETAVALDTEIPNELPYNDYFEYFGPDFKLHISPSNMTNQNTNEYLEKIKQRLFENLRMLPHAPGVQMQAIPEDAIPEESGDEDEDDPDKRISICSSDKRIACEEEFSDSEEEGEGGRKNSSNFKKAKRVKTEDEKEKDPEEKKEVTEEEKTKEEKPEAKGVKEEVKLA
Procedure: Human HDAC1 (GenBank Accession No. NM_004964), full-length with a C-terminal His-tag and a C-terminal FLAG-tag, MW=56 kDa, was expressed in a baculovirus expression system.
as §1, §2

Human HDAC8 = target: T4, Human HDAC8 (Homo sapiens, UniProt Q9BY41); assay: Biochemical HDAC assay, HDAC8; conditions: incubation time 10 min
T4 construct: full-length with a C-terminal His tag; His tag (C); made in house
T4 sequence (Q9BY41 1-377): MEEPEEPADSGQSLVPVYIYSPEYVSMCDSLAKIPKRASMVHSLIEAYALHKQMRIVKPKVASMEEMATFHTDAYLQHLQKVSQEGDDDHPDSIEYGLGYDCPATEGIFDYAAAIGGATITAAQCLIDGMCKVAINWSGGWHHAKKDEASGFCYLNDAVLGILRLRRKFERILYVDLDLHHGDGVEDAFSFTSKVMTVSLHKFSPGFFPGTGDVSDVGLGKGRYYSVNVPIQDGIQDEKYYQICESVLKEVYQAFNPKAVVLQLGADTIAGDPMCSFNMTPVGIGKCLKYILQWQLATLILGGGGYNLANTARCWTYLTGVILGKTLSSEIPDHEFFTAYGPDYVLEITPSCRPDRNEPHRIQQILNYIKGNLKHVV
Procedure: Human HDAC8 (GenBank Accession No. NM_018486), full-length with a C-terminal His tag, MW=46.4 kDa, was expressed in a baculovirus expression system.
as §1, §2

Recombinant human HDAC6 = target: T5, Recombinant human HDAC6 (Homo sapiens, UniProt Q9UBN7); assay: Biochemical HDAC assay, HDAC6; conditions: incubation time 10 min
T5 construct: full-length, MW=180 kDa; GST tag (N); made in house; host or cells: Sf9 insect cells (baculovirus)
T5 sequence (Q9UBN7 1-1215): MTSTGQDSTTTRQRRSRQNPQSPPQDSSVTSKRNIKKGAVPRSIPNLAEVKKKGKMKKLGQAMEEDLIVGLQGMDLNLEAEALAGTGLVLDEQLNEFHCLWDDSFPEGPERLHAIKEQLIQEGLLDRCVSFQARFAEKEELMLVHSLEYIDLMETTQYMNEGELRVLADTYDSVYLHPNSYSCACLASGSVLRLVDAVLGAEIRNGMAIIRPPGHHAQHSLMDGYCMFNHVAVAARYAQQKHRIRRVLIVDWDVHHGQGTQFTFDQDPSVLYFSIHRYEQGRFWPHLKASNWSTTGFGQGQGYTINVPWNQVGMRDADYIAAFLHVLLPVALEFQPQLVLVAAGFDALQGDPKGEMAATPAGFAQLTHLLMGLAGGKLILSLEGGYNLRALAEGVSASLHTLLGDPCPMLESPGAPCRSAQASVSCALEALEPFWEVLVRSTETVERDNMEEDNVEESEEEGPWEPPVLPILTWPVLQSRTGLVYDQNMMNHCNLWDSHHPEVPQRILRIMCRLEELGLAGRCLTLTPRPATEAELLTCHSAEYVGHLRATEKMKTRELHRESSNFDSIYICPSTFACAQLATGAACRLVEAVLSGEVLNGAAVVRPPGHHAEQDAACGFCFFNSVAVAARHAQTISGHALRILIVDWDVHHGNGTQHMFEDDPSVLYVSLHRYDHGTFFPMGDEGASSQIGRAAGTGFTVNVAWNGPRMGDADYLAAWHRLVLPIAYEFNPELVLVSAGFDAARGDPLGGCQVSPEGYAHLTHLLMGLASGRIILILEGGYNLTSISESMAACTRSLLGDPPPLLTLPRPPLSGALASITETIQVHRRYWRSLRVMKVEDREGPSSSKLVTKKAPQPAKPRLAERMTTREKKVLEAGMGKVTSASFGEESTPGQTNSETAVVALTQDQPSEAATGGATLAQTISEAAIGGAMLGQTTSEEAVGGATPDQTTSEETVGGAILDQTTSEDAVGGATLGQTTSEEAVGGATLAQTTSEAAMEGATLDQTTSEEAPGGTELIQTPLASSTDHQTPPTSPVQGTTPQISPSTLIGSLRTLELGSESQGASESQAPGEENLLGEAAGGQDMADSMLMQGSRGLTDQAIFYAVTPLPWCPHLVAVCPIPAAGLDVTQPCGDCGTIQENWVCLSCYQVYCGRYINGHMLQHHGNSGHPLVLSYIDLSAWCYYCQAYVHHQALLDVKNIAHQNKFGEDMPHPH
Procedure: Recombinant human HDAC6 (GenBank Accession No. BC069243), full-length, MW=180 kDa, was expressed by baculovirus in Sf9 insect cells using an N-terminal GST tag.
as §1, §2

T1 sequence (Q92769 whole entry): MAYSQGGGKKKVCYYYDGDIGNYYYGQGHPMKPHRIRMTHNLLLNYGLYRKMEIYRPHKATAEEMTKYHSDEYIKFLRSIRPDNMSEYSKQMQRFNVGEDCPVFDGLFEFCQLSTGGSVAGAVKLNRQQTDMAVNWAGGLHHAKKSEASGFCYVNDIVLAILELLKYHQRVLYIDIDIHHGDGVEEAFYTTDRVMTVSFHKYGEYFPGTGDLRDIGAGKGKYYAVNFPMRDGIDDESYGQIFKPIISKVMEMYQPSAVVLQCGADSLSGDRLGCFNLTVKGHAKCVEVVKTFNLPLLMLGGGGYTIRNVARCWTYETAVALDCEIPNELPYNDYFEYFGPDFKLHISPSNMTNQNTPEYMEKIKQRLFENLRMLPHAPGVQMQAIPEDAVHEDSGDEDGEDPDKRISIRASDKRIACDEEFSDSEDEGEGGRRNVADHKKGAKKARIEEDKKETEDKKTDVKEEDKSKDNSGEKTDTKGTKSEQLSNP

IC50 (Human HDAC2) [nM] | IC50 [1] [µM] | IC50 (Human HDAC1) [nM] | IC50 (Human HDAC8) [µM] | IC50 (Recombinant human HDAC6) [µM] | SMILES
24 | > 10 | 1.8 | > 10 | > 10 | Nc1ccc(-c2cccs2)cc1NC(=O)c1ccc2c(c1)CCNC2=O [Example 1, N-(2-amino-5-(thiophen-2-yl)phenyl)-1-oxo-1,2,3,4-tetrahydroisoquinoline-6-carboxamide]
23 | > 10 | 1.9 | > 10 | > 10 | Nc1ccc(-c2cccs2)cc1NC(=O)c1ccc2c(c1)CCN(CC1CCOCC1)C2=O [Example 2, N-(2-amino-5-(thiophen-2-yl)phenyl)-1-oxo-2-((tetrahydro-2H-pyran-4-yl)methyl)-1,2,3,4-tetrahydroisoquinoline-6-carboxamide]
39 | > 10 | 3 | > 10 | > 10 | Nc1ccc(-c2cccs2)cc1NC(=O)c1ccc2c(c1)CCN(C(=O)c1cccnc1)C2 [Example 4, N-(2-amino-5-(thiophen-2-yl)phenyl)-2-nicotinoyl-1,2,3,4-tetrahydroisoquinoline-6-carboxamide]
25 | > 10 | 2.6 | > 10 | > 10 | Nc1ccc(-c2cccs2)cc1NC(=O)c1ccc2c(c1)CCN(C(=O)C1CCOCC1)C2 [Example 3, N-(2-amino-5-(thiophen-2-yl)phenyl)-2-(tetrahydro-2H-pyran-4-carbonyl)-1,2,3,4-tetrahydroisoquinoline-6-carboxamide]
